Test results published in patent US9090583B2, “Benzopyrone estrogen receptor regulator” (BEIJING SHENOGEN PHARMA GROUP LTD., priority 2010, dated 2015).
≈ marks a conversion by molar mass, not a printed value. Like-named read-outs stand apart in the source and are kept apart here.

Columns and labels:
MDA-MB-231 cells = experiment: CellTiter-Glo Luminescent Cell Viability Assay on ER-negative breast cancer MDA-MB-231 cells; assay type: cell-based; details: average ± standard deviation when tested more than 3 times, read-out: Inhibition of the viability of breast cancer cells, IC50
Outline: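 Cells seeded at 6×10^3 per well in DMEM with 10% FCS and exposed 72 h to compound at 0 to 100 μM (twelve concentrations, DMSO vehicle). Viability measured by CellTiter-Glo luminescence.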

MCF7 cells = experiment: CellTiter-Glo Luminescent Cell Viability Assay on ER-positive breast cancer MCF-7 cells; assay type: cell-based, human; details: average ± standard deviation when tested more than 3 times, read-out: Inhibition of the viability of breast cancer cells, IC50
Outline: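 MCF7 cells (DMEM, 10% FCS, 37 °C) treated 72 h with compound at 0–100 μM (0.3, 0.5, 1, 2, 3, 5, 10, 20, 30, 50, 100 μM). Viability measured by CellTiter-Glo luminescence.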

SK-OV3 cells = experiment: CellTiter-Glo Luminescent Cell Viability Assay on ovary cancer SK-OV3 cells; assay type: cell-based; details: read-out: Inhibition of the viability of ovary cancer cells, IC50
Experimental: C: In Vitro CellTiter-Glo® Luminescent Cell Viability Assay on Ovary Cancer SK-OV3 Cells
(§1) The ovary cancer SK-OV3 cells were obtained from Cancer hospital, Chinese Academy of Medical Sciences and maintained in RPMI-1640 and 10% fetal calf serum at 37° C., under 5% CO2 atmosphere. The cells were seeded on 96-well plate at a density of 6×10^3 cells per well. SK-OV3 cells were treated with a test compound dissolved in DMSO at the concentrations of zero, 0.3 μM, 0.5 μM, 1 μM, 2 μM, 3 μM, 5 μM, 10 μM, 20 μM, 30 μM, 50 μM and 100 μM for 72 hours. Treated cells were examined by CellTiter-Glo® Luminescent Cell Viability Assay Kit (Promega), and luminescence values were recorded with Envision.

CoC1 cells = experiment: CellTiter-Glo Luminescent Cell Viability Assay on ovary cancer CoC1 cells; assay type: cell-based; details: 72 hours, read-out: Inhibition of the viability of ovary cancer cells, IC50
Experimental: B: In Vitro CellTiter-Glo® Luminescent Cell Viability Assay on Ovary Cancer CoC1 Cells
as §1, with “CoC1” for “SK-OV3”, “10” for “10 μM, 20”

HO8910 cells = experiment: CellTiter-Glo Luminescent Cell Viability Assay on ovary cancer HO8910 cells; assay type: cell-based; details: HO-8910 cells; 72 hours; read-out: Inhibition of the viability of ovary cancer cells, IC50
Experimental: A: In Vitro CellTiter-Glo® Luminescent Cell Viability Assay on Ovary Cancer HO8910 Cells
as §1, with “Ovary” for “The ovary”, “HO8910” for “SK-OV3”, “Type Culture Collection of the” for “Cancer hospital,”, “Sciences, Shanghai,” for “Medical Sciences”

K562 cells = experiment: CellTiter-Glo Luminescent Cell Viability Assay on leukemia K562 cells; assay type: cell-based, human; details: 72 hours, read-out: Inhibition of the viability of leukemia cells, IC50
Experimental: A: In Vitro CellTiter-Glo® Luminescent Cell Viability Assay on Leukemia K562 Cells
as §1, with “leukemia K562” for “ovary cancer SK-OV3”, “ATCC” for “Cancer hospital, Chinese Academy of Medical Sciences”, “IMDM” for “RPMI-1640”, “K562” for “SK-OV3”

HL-60 cells = experiment: CellTiter-Glo Luminescent Cell Viability Assay on leukemia HL-60 cells; assay type: cell-based, human; details: 72 hours, read-out: Inhibition of the viability of leukemia cells, IC50
Experimental: B: In Vitro CellTiter-Glo® Luminescent Cell Viability Assay on Leukemia HL-60 Cells
as §1, with “leukemia HL-60” for “ovary cancer SK-OV3”, “ATCC” for “Cancer hospital, Chinese Academy of Medical Sciences”, “IMDM” for “RPMI-1640”, “HL-60” for “SK-OV3”

Molt-4 cells = experiment: CellTiter-Glo Luminescent Cell Viability Assay on leukemia Molt-4 cells; assay type: cell-based; details: 72 hours, read-out: Inhibition of the viability of leukemia cells, IC50
Experimental: C: In Vitro CellTiter-Glo® Luminescent Cell Viability Assay on Leukemia Molt-4 Cells
as §1, with “leukemia Molt-4” for “ovary cancer SK-OV3”, “ATCC” for “Cancer hospital, Chinese Academy of Medical Sciences”, “[…]” for “SK-OV3”

Hep3B2.1-7 cells = experiment: MTT assay, in vitro growth of liver cancer Hep3B2.1-7 cells; assay type: cell-based; details: 72 hours; for IC50: read-out: Inhibition on liver cancer cells, IC50
Experimental: The liver cancer Hep3B2.1-7 cells were obtained from ATCC. Cells were incubated in 1640 culture medium with 5% fetal calf serum and 100 U/ml double-antibody in a cell incubator at 37° C., 5% CO2 atmosphere and passaged via conventional methods. The sample was dissolved in DMSO, formulated into 50 mg/ml stocking solution, and stored at 4° C. The test solutions at 50, 25, 12.5 and 6.25 μg/ml were formulated with culture medium immediately before use.
The adherent cells were digested with cell digestive solution, and then the exfoliated cells were collected and counted. The cell suspension was formulated with 1640 culture medium containing 5% fetal calf serum (5.0×10^4/ml). The cell suspension was seeded on 96-well plate with 100 μl/well, and maintained in a cell incubator at 37° C., 5% CO2 atmosphere for 24 hours. After that, the compounds at various concentrations were added, where solvent was taken as negative control and Taxol as positive control. 10 μl MTT (5 mg/ml) was added after 72 hours. The supernatant was removed after cultivation for 3 hours more, 150 μl DMSO was added and the formazan was dissolved on shaking. OD values were measured at 570 nm after homogeneous mixing, and inhibition rate and IC50 values were calculated based on the mean of OD values from 3 wells.

[1] = Homo sapiens, SK-OV-3, 72 hours

With `COc1c(-c2cc(F)cc(F)c2)oc2c(CC=C(C)C)c(O)c(CC=C(C)C)c(O)c2c1=O` [Compound 2, 2-(3,5-difluorophenyl)-5,7-dihydroxy-3-methoxy-6,8-di(3-methyl-2-buten-1-yl)-4H-benzopyran-4-one] the IC50 (MDA-MB-231 cells; Homo sapiens, MDA-MB-231, 72 h) was 11.3 ± 1.38 µM, the IC50 (MCF7 cells; Homo sapiens, MCF7, 72 h) was 6.51 ± 1.42 µM and the IC50 (SK-OV3 cells; [1]) was 7.22 µM. For the same compound, the IC50 (CoC1 cells) was 5.19 µM, the IC50 (HO8910 cells) was 15.7 µM and the IC50 (K562 cells; Homo sapiens) was > 100 µM. For the same compound, the IC50 (HL-60 cells; Homo sapiens) was > 100 µM and the IC50 (Molt-4 cells; Homo sapiens) was > 100 µM.

`COc1c(-c2ccc(F)c(F)c2)oc2c(CC=C(C)C)c(O)c(CC=C(C)C)c(O)c2c1=O` [Compound 4, 2-(3,4-difluorophenyl)-5,7-dihydroxy-3-methoxy-6,8-di(3-methyl-2-buten-1-yl)-4H-benzopyran-4-one] showed an IC50 (MDA-MB-231 cells; Homo sapiens, MDA-MB-231, 72 h) of 6.37 ± 0.03 µM, an IC50 (MCF7 cells; Homo sapiens, MCF7, 72 h) of 4.95 ± 0.65 µM and an IC50 (SK-OV3 cells; [1]) of 6.42 µM. It also gave an IC50 (HO8910 cells) of 14 µM, an IC50 (K562 cells; Homo sapiens) of 8.65 µM and an IC50 (HL-60 cells; Homo sapiens) of 10.1 µM. For the same compound, the IC50 (Molt-4 cells; Homo sapiens) was 10.3 µM and the IC50 (Hep3B2.1-7 cells) was 1.38 µg/mL (≈ 3.02 µM).

For `COc1c(-c2ccc(F)cc2)oc2c(CC=C(C)C)c(O)c(CC=C(C)C)c(O)c2c1=O` [Compound 7, 2-(4-fluorophenyl)-5,7-dihydroxy-3-methoxy-6,8-di(3-methyl-2-buten-1-yl)-4H-benzopyran-4-one], the IC50 (MDA-MB-231 cells; Homo sapiens, MDA-MB-231, 72 h) was 10.9 ± 2.22 µM, the IC50 (MCF7 cells; Homo sapiens, MCF7, 72 h) was 12.6 ± 0.68 µM and the IC50 (SK-OV3 cells; [1]) was > 100 µM. For the same compound, the IC50 (CoC1 cells) was > 100 µM, the IC50 (HO8910 cells) was 21.6 µM and the IC50 (Hep3B2.1-7 cells) was 1.09 µg/mL (≈ 2.49 µM).

`COc1c(-c2ccc(F)c(Cl)c2)oc2c(CC=C(C)C)c(O)c(CC=C(C)C)c(O)c2c1=O` [Compound 8, 2-(3-chloro-4-fluorophenyl)-5,7-dihydroxy-3-methoxy-6,8-di(3-methyl-2-butylene-1-yl)-4H-benzopyran-4-one] gave an IC50 (MDA-MB-231 cells; 72 hours) of 9.96 ± 1.97 µM, an IC50 (MCF7 cells; 72 hours) of 8.58 ± 0.24 µM and an IC50 (SK-OV3 cells; 72 hours) of 24.3 µM. For the same compound, the IC50 (CoC1 cells) was 11.8 µM, the IC50 (HO8910 cells) was 22.3 µM and the IC50 (K562 cells) was 12.8 µM. The IC50 (HL-60 cells) was 17.9 µM, the IC50 (Molt-4 cells) was 15.3 µM and the “Inhibition on liver cancer cells, IC50” value (Hep3B2.1-7 cells) was 1.46 µg/mL.

Work on `COc1c(-c2cncs2)oc2c(CC=C(C)C)c(O)c(CC=C(C)C)c(O)c2c1=O` [Compound 25, 2-(thiazol-5-yl)-5,7-dihydroxy-3-methoxy-6,8-di(3-methyl-2-buten-1-yl)-4H-benzopyran-4-one] yielded an IC50 (MDA-MB-231 cells; Homo sapiens, MDA-MB-231, 72 h) of 17.3 ± 6.5 µM, an IC50 (MCF7 cells; Homo sapiens, MCF7, 72 h) of 9.19 ± 2.47 µM and an IC50 (SK-OV3 cells; [1]) of 12.6 µM. For the same compound, the IC50 (CoC1 cells) was 14.3 µM, the IC50 (HO8910 cells) was > 100 µM and the IC50 (K562 cells; Homo sapiens) was > 100 µM. The IC50 (HL-60 cells; Homo sapiens) was > 100 µM and the IC50 (Molt-4 cells; Homo sapiens) was > 100 µM.

`COc1ccc(-c2oc3c(CC=C(C)C)c(O)c(CC=C(C)C)c(O)c3c(=O)c2OC)cn1` [Compound 26, 2-(6-methoxypyridin-3-yl)-5,7-dihydroxy-3-methoxy-6,8-di(3-methyl-2-buten-1-yl)-4H-benzopyran-4-one] was tested, and the IC50 (MDA-MB-231 cells; Homo sapiens, MDA-MB-231, 72 h) was 12.8 ± 1.78 µM, the IC50 (MCF7 cells; Homo sapiens, MCF7, 72 h) was 11 ± 1.34 µM and the IC50 (SK-OV3 cells; [1]) was 40.1 µM. It also gave an IC50 (CoC1 cells) of 17.8 µM and an IC50 (HO8910 cells) of 24.3 µM.

Compound `COc1cc(-c2oc3c(CC=C(C)C)c(O)c(CC=C(C)C)c(O)c3c(=O)c2OC)ccn1` [Compound 27, 2-(2-methoxypyridin-4-yl)-5,7-dihydroxy-3-methoxy-6,8-di(3-methyl-2-buten-1-yl)-4H-benzopyran-4-one] has an IC50 (MDA-MB-231 cells; Homo sapiens, MDA-MB-231, 72 h) of 10.3 ± 0.56 µM, an IC50 (MCF7 cells; Homo sapiens, MCF7, 72 h) of 6.17 ± 0.05 µM and an IC50 (SK-OV3 cells; [1]) of 7.23 µM. For the same compound, the IC50 (CoC1 cells) was 9.23 µM and the IC50 (HO8910 cells) was 17.6 µM.

In the case of `COc1c(-c2ccc(F)c(F)c2)oc2c(CC=C(C)C)c(O)c(CC=C(C)C)c(OC)c2c1=O` [Compound 83, 2-(3,4-difluorophenyl)-7-hydroxy-3,5-dimethoxy-6,8-di(3-methyl-2-buten-1-yl)-4H-benzopyran-4-one], the IC50 (MDA-MB-231 cells; Homo sapiens, MDA-MB-231, 72 h) is reported as 11.3 ± 0.86 µM, the IC50 (MCF7 cells; Homo sapiens, MCF7, 72 h) is reported as 10.6 ± 3.06 µM and the IC50 (K562 cells; Homo sapiens) is reported as > 100 µM. For the same compound, the IC50 (HL-60 cells; Homo sapiens) was > 100 µM and the IC50 (Molt-4 cells; Homo sapiens) was > 100 µM.

With `COc1c(-c2ccc(Cl)c(F)c2)oc2c(CC=C(C)C)c(O)c(CC=C(C)C)c(OC)c2c1=O` [Compound 84, 2-(3-fluoro-4-chlorophenyl)-7-hydroxy-3,5-dimethoxy-6,8-di(3-methyl-2-buten-1-yl)-4H-benzopyran-4-one] the IC50 (MDA-MB-231 cells; Homo sapiens, MDA-MB-231, 72 h) was 13.5 µM, the IC50 (MCF7 cells; Homo sapiens, MCF7, 72 h) was 6.89 µM and the IC50 (SK-OV3 cells; [1]) was 15.7 µM. For the same compound, the IC50 (CoC1 cells) was 23.4 µM and the IC50 (HO8910 cells) was 23.4 µM.

With `COc1ccc(-c2cc(=O)c3c(O)c(CC=C(C)C)c(O)c(CC=C(C)C)c3o2)cc1Cl` [Compound 90, 2-(3-chloro-4-trimethoxyphenyl)-5,7-dihydroxy-6,8-di(3-methyl-2butylene-1-yl)-4H-benzopyran-4-one] the IC50 (MDA-MB-231 cells; 72 hours) was 10.7 ± 1.38 µM, the IC50 (MCF7 cells; 72 hours) was 8.98 µM and the IC50 (SK-OV3 cells; 72 hours) was > 100 µM. The IC50 (CoC1 cells) was > 100 µM and the IC50 (HO8910 cells) was > 100 µM.
